Results from ChEMBL document CHEMBL5241127, “Design, synthesis and biological evaluation of novel 9-N-substituted-13-alkylberberine derivatives from Chinese medicine as anti-hepatocellular carcinoma agents” (Bioorg Med Chem, 2023).
The source made the active and inactive calls. The rule behind the calls is not given here.

Assays:
HepG2 [1] = assay: Antiproliferative activity against human HepG2 cells assessed as inhibition of cell growth incubated for 72 hrs by MTT assay; format: functional, cell-based; settings: HepG2, 72 h
Quadruplex DNA [2] = assay: Stabilization of c-MYC G4-quadruplex DNA in human HepG2 cells assessed as BG4 foci formation at 0.3 uM incubated for 72 hrs by confocal laser scanning microscope based analysis; format: cell-based
H22 [3] = assay: Antitumor activity against […] xenografted in ICR mouse assessed as reduction in tumor weight administered intravenously for 21 days; format: functional, cell-based; settings: dose 10-20 mg/kg, route iv, time 21.0 day
H22 [4] = assay: Antitumor activity against […] xenografted in ICR mouse assessed as reduction in tumor volume administered intravenously for 21 days and measured every 2 days; format: functional, cell-based; settings: dose 10-20 mg/kg, route iv, time 21.0 day
HepG2 [5] = assay: Induction of cell cycle arrest in human HepG2 cells assessed as accumulation of cells at G2 phase at 0.15 to 0.6 uM incubated for 72 hrs by RNaseA/PI staining based flow cytometry analysis (reference value: 12.99%); format: functional; settings: dose 0.15-0.6 µM
HepG2 [6] = assay: Induction of ROS production in human HepG2 cells assessed as increase in ROS positive cells at 0 to 0.60 uM incubated for 72 hrs by DCF-DA staining based flow cytometry analysis (reference value: 4.21%); format: functional; settings: dose 0-0.6 µM
[7] = Toxicity in ICR mouse xenografted with […] H22 cells assessed as abnormalities in lung at 20 mg/kg, iv administered for 21 days; format: organism-based; settings: in vivo, 504 h, time 21 day
HepG2 [8] = assay: Downregulation of p-AKT protein expression in human HepG2 cells incubated for 72 hrs by Western blot analysis; format: functional, cell-based; settings: dose 0-0.6 µM
HepG2 [9] = assay: Potency index, ratio of cisplatin IC50 to test compound IC50 for antiproliferative activity against human HepG2 cells assessed as inhibition of cell growth incubated for 72 hrs by MTT assay; format: functional
[10] = Toxicity in ICR mouse xenografted with […] H22 cells assessed as abnormalities in heart at 20 mg/kg, iv administered for 21 days; format: organism-based; settings: in vivo, 504 h, time 21 day
HepG2 [11] = assay: Induction of ROS production in human HepG2 cells assessed as increase in ROS positive cells at 0.06 uM preincubated with ROS scavenger, NAC followed by compound addition and further incubated for 72 hrs by DCF-DA staining based flow cytometry analysis (reference value: 4.21%); format: functional
[12] = Toxicity in ICR mouse xenografted with […] H22 cells assessed as abnormalities in liver at 20 mg/kg, iv administered for 21 days; format: organism-based; settings: in vivo, 504 h, time 21 day
[13] = Initial plasma concentration in Sprague-Dawley rat at 1 mg/kg, iv by LC-MS/MS analysis; format: ADME, organism-based
DNA = assay: Binding affinity to duplex DNA (unknown origin) using fluorescent tagged F10T model assessed as stabilization by measuring change in melting temperature at 2 uM by fluorescence based analysis; format: nucleic-acid assay
HepG2 [14] = assay: Induction of apoptosis in human HepG2 cells assessed as reduction in Bcl-2 protein expression at […] incubated for 72 hrs by Western blot analysis; format: functional, cell-based; settings: dose lower 0.15 µM
HepG2 [15] = assay: Effect on AKT total protein level in human HepG2 cells at 0 to 0.6 uM incubated for 72 hrs by Western blot analysis; format: functional, cell-based; settings: dose 0-0.6 µM
HepG2 [16] = assay: Antiproliferative activity against cisplatin-resistant human HepG2 cells assessed as inhibition of cell growth incubated for 72 hrs by MTT assay; format: functional, cell-based; settings: HepG2, 72 h
HepG2 [17] = assay: Effect on PI3K total protein level in human HepG2 cells at 0 to 0.6 uM incubated for 72 hrs by Western blot analysis; format: functional, cell-based; settings: dose 0-0.6 µM
HepG2 [18] = assay: Potency index, ratio of cisplatin IC50 to test compound IC50 for antiproliferative activity against cisplatin-resistant human HepG2 cells assessed as inhibition of cell growth incubated for 72 hrs by MTT assay; format: functional
Hep 3B2 = assay: Antiproliferative activity against human Hep3B cells assessed as inhibition of cell growth incubated for 72 hrs by MTT assay; format: functional, cell-based
[19] = Toxicity in ICR mouse xenografted with […] H22 cells assessed as abnormalities in kidney at 20 mg/kg, iv administered for 21 days; format: organism-based; settings: in vivo, 504 h, time 21 day
HepG2 [20] = assay: Induction of G2/M phase cell cycle arrest in human HepG2 cells assessed as downregulation of cdc2 protein expression incubated for 72 hrs by Western blot analysis; format: functional, cell-based; settings: dose 0.15-0.6 µM
HepG2 [21] = assay: Induction of G2/M phase cell cycle arrest in human HepG2 cells assessed as downregulation of cyclinB1 protein expression incubated for 72 hrs by Western blot analysis; format: functional, cell-based; settings: dose 0.15-0.6 µM
H22 [22] = assay: Antitumor activity against […] xenografted in ICR mouse assessed as inhibition of tumor growth at 10 mg/kg, iv administered for 21 days and measured every 2 days relative to control; format: functional; settings: H22, 504 h, time 21 day, read-out: TGI
SK-HEP1 = assay: Antiproliferative activity against human SK-HEP1 cells assessed as inhibition of cell growth incubated for 72 hrs by MTT assay; format: functional, cell-based; settings: SK-HEP1, 72 h
[23] = AUC (0 to t) in Sprague-Dawley rat at 1 mg/kg, iv measured for 24 hrs by LC-MS/MS analysis; format: ADME, organism-based; set-up: dose 1 mg/kg, time 24 hrs, route iv; settings: in vivo
Huh-7 = assay: Antiproliferative activity against human Huh-7 cells assessed as inhibition of cell growth incubated for 72 hrs by MTT assay; format: functional, cell-based; settings: Huh-7, 72 h
[24] = Toxicity in ICR mouse xenografted with […] H22 cells assessed as reduction in body weight at 10 to 20 mg/kg, iv administered for 21 days and measured every 2 days; format: organism-based; settings: in vivo, 504 h, dose 10-20 mg/kg, time 21 day
HepG2 [25] = assay: Downregulation of p-PI3K protein expression in human HepG2 cells incubated for 72 hrs by Western blot analysis; format: functional, cell-based; settings: dose 0-0.6 µM
[26] = Drug concentration in Sprague-Dawley rat plasma at 1 mg/kg, iv measured after 5 mins by LC-MS/MS analysis; format: ADME, organism-based
HepG2 [27] = assay: Induction of apoptosis in human HepG2 cells assessed as increase in cleaved caspase 3 expression incubated for 72 hrs by Western blot analysis; format: functional, cell-based; settings: dose 0.15-0.6 µM
HepG2 [28] = assay: Induction of apoptosis in human HepG2 cells assessed as increase in total apoptotic cells at 0.15 to 0.6 uM incubated for 72 hrs by AnnexinV-FITC/propidium iodide staining based flow cytometry (reference value: 4.1%); format: functional; settings: dose 0.15-0.6 µM
HepG2 [29] = assay: Induction of mitochondrial dysfunction in human HepG2 cells assessed as increase in cells with collapsed mitochondrial membrane potential at 0.15 to 0.6 uM incubated for 72 hrs by JC-1 staining based flow cytometry analysis (reference value: 4.84%); format: functional; settings: dose 0.15-0.6 µM
HepG2 [30] = assay: Induction of apoptosis in human HepG2 cells assessed as increase in Bax protein expression incubated for 72 hrs by Western blot analysis; format: functional, cell-based; settings: dose 0.15-0.6 µM
Quadruplex DNA [31] = assay: Stabilization of c-MYC G4-quadruplex DNA in human HepG2 cells assessed as downregulation of c-myc expression incubated for 72 hrs by Western blot analysis; format: cell-based; settings: dose 0.15-0.6 µM
[32] = MRT (0 to t) in Sprague-Dawley rat at 1 mg/kg, iv measured for 24 hrs by LC-MS/MS analysis; format: ADME, organism-based; settings: in vivo
[33] = Clearance in Sprague-Dawley rat at 1 mg/kg, iv measured for 24 hrs by LC-MS/MS analysis; format: ADME, organism-based; settings: in vivo
Quadruplex DNA [34] = assay: Binding affinity to c-MYC G4-quadruplex DNA (unknown origin) using fluorescent tagged FPu18T model assessed as stabilization by measuring change in melting temperature at 2 uM by fluorescence based analysis; format: nucleic-acid assay
HepG2 [35] = assay: Induction of cell cycle arrest in human HepG2 cells assessed as accumulation of cells at S phase at 0.15 to 0.6 uM incubated for 72 hrs by RNaseA/PI staining based flow cytometry analysis (reference value: 35.98%); format: functional; settings: dose 0.15-0.6 µM
[36] = Antiproliferative activity against human LX2 cells assessed as inhibition of cell growth incubated for 72 hrs by MTT assay; format: functional, cell-based; settings: LX-2, 72 h
H22 [37] = assay: Antitumor activity against […] xenografted in ICR mouse assessed as inhibition of tumor growth at 20 mg/kg, iv administered for 21 days and measured every 2 days relative to control; format: functional; settings: H22, 504 h, time 21 day, read-out: TGI
HepG2 [38] = assay: Induction of G2/M phase cell cycle arrest in human HepG2 cells assessed as upregulation of p-cdc25c protein expression incubated for 72 hrs by Western blot analysis; format: functional, cell-based; settings: dose 0.15-0.6 µM
[39] = Toxicity in ICR mouse xenografted with […] H22 cells assessed as abnormalities in spleen at 20 mg/kg, iv administered for 21 days; format: organism-based; settings: in vivo, 504 h, time 21 day
Quadruplex DNA [40] = assay: Binding affinity to c-MYC G4-quadruplex DNA (unknown origin) using fluorescent tagged FPu18T model assessed as stabilization by measuring change in melting temperature at 2 uM incubated in presence of non-fluorescent ds26 DNA by fluorescence based analysis; format: nucleic-acid assay
HepG2 [41] = assay: Induction of apoptosis in human HepG2 cells assessed as increase in cytochrome C protein expression incubated for 72 hrs by Western blot analysis; format: functional, cell-based; settings: dose 0.15-0.6 µM
[42] = Half life in Sprague-Dawley rat at 1 mg/kg, iv measured for 24 hrs by LC-MS/MS analysis; format: ADME, organism-based; settings: in vivo
Quadruplex DNA [43] = assay: Stabilization of c-MYC G4-quadruplex DNA in human HepG2 cells assessed as colocalization with BG4 in G4-forming region at 0.3 uM incubated for 72 hrs by confocal laser scanning microscope based analysis; format: cell-based

SMILES: CCCCCCc1c2[n+](cc3c(NCCN(C)C)c(OC)ccc13)CCc1cc3c(cc1-2)OCO3
- IC50 (HepG2 [1]): 2420 nM

SMILES: CCCCCCCCCCCCc1c2[n+](cc3c(NCCN(C)C)c(OC)ccc13)CCc1cc3c(cc1-2)OCO3
- IC50 (HepG2 [1]): 1240 nM

SMILES: CCCCCCCCc1c2[n+](cc3c(NCCN(C)C)c(OC)ccc13)CCc1cc3c(cc1-2)OCO3.[Cl-]
- Activity (Quadruplex DNA [2]): Active
- Activity (H22 [3]): Dose-Dependent Effect
- Activity (H22 [4]): Dose-Dependent Effect
- Activity (HepG2 [5]): 27.61%
- Activity (HepG2 [6]): 52.48%
- Activity [7]: Non-Toxic
- Activity (HepG2 [8]): Dose-Dependent Effect
- Ratio IC50 (HepG2 [9]): >10
- Activity [10]: Non-Toxic
- Activity (HepG2 [11]): 3.67%
- Activity [12]: Non-Toxic
- C0 [13]: 872 ng/mL
- ΔTm (DNA): 0.2 °C
- Activity (HepG2 [14]): Active
- Activity (HepG2 [15]): inactive
- IC50 (HepG2 [16]): 2120 nM
- Activity (HepG2 [17]): inactive
- Ratio IC50 (HepG2 [18]): >40
- IC50 (Hep 3B2): 1150 nM
- Activity [19]: Non-Toxic
- Activity (HepG2 [20]): Dose-Dependent Effect
- Activity (HepG2 [21]): Dose-Dependent Effect
- inhibition in vivo at 10 mg/kg (H22 [22]): 51.8%
- IC50 (HepG2 [1]): 640 nM
- IC50 (SK-HEP1): 1070 nM
- AUC(0-t) at 24 h [23]: 674 ng·h/mL
- IC50 (Huh-7): 580 nM
- Activity [24]: Non-Toxic
- Activity (HepG2 [25]): Dose-Dependent Effect
- concentration at 5 min [26]: 758 ng/mL
- Activity (HepG2 [27]): Dose-Dependent Effect
- Activity (HepG2 [28]): 51.25%
- Activity (HepG2 [29]): 40.73%
- Activity (HepG2 [30]): Dose-Dependent Effect
- Activity (Quadruplex DNA [31]): Dose-Dependent Effect
- MRT last at 24 h [32]: 1.81 h
- clearance [33]: 21.7 mL/min/kg
- ΔTm (Quadruplex DNA [34]): 21.4 °C
- Activity (HepG2 [35]): 21.63%
- IC50 [36]: 8620 nM
- inhibition in vivo at 20 mg/kg (H22 [37]): 62.9%
- Activity (HepG2 [38]): Dose-Dependent Effect
- Activity [39]: Non-Toxic
- ΔTm (Quadruplex DNA [40]): 20.9 °C
- Activity (HepG2 [41]): Dose-Dependent Effect
- half-life [42]: 2.62 h
- Activity (Quadruplex DNA [43]): Active

SMILES: COc1ccc2cc3[n+](cc2c1OC)CCc1cc2c(cc1-3)OCO2 [BERBERINE]
- ΔTm (DNA): 2.1 °C
- IC50 (HepG2 [16]): > 50000 nM
- IC50 (Hep 3B2): > 50000 nM
- IC50 (HepG2 [1]): > 50000 nM
- IC50 (SK-HEP1): > 50000 nM
- IC50 (Huh-7): > 50000 nM
- ΔTm (Quadruplex DNA [34]): 1.6 °C
- IC50 [36]: > 50000 nM
- inhibition in vivo at 20 mg/kg (H22 [37]): 42.3%
